Reference: paper PMC10893631, “Receptor-based pharmacophore modeling, molecular docking, synthesis and biological evaluation of novel VEGFR-2, FGFR-1, and BRAF multi-kinase inhibitors” (BMC Chemistry, 2024)

Assays:
FGFR-1 = target: T1, FGFR-1 (Homo sapiens, UniProt P11362); assay: FGFR-1 kinase assay kit (BPS), Kinase-Glo Max luminescence; format: biochemical
T1 construct: purchased BPS Biosciences 40210
Experimental: (§1) 2. Biochemical kinase assay procedure
The inhibitory activity against different kinases was determined using kinase kits (VEGFR-2 cat ID: 40325), (FGFR-1 cat ID: 40210), (BRAF (WT) cat. ID: 78316); purchased from BPS Biosciences and kinase-Glo Max luminescence kinase assay kit (Promega).
(§2) The assay was carried out according to the protocol provided by the manufacturer. A stock solution of the synthesized derivatives in 100% DMSO was prepared. Subsequently, the compounds were diluted to 10% DMSO.
(§3) A master mixture was prepared according to the number of wells. For VEGFR-2 and FGFR-1 biochemical assays each well include 6 μl of 5x Kinase Buffer 1 + 1 μl of 500 μM ATP + 1 μl of PTK Substrate (Poly-Glu,Tyr 4:1) (10 mg/ml) + 17 μl of distilled water. […]
(§4) The plate was incubated at 30 °C for 45 min. Subsequently, 50 μl of Kinase-Glo Max luminescence reagent was added to each well and the plate was covered with aluminum foil and incubated at room temperature 15 min. Finally, the luminescence was recorded using multimode microplate reader. […]
(§5) The luminescence data were analyzed as follows. The difference between luminescence intensities in the absence of kinase (Lut) and in the presence of kinase (Luc) was defined as 100 % activity (Lut – Luc). Using luminescence signal (Lu) in the presence of the compound, % activity was calculated as: % activity = {(Lut - Lu)/(Lut - Luc)}×100%. […]

BRAF (WT) = target: T2, BRAF (WT) (Homo sapiens, UniProt P15056); assay: BRAF kinase assay kit (BPS), Kinase-Glo Max luminescence; format: biochemical
T2 construct: purchased BPS Biosciences 78316
Experimental: as §1
The inhibitory activity against different kinases was determined using kinase kits […]
from BPS Biosciences and kinase-Glo Max luminescence kinase assay kit (Promega).
as §2, §3, §4, §5

MCF-7 cells [1] = assay: Annexin V-FITC apoptosis assay; format: cell-based; conditions: MCF-7, at GI50 concentration
Experimental: As previously reported, the Annexin V-FITC apoptosis detection kit (Abcam Inc., Cambridge, UK) in conjunction with two fluorescent channels flow cytometry was used to identify the populations of apoptosis and necrosis cells. (For further details see Additional file 1: section II: practical results). […]
(§6) MCF-7: Breast Adenocarcinoma was obtained from Nawah Scientific Inc., (Mokatam, Cairo, Egypt). Cells were maintained in DMEM media supplemented with […] of streptomycin, 100 units/mL of penicillin and 10% of heat-inactivated fetal bovine serum in humidified, 5% (v/v) CO2 atmosphere at 37 °C. […]
Biosciences Inc., San Diego, CA, USA). […]
Apoptosis and necrosis cell populations are determined using Annexin V-FITC apoptosis detection kit (Abcam Inc., Cambridge Science Park, Cambridge, UK) coupled with 2 fluorescent channels flowcytometry. After treatment with test compounds for 48h, cells (105 […]
trypsinization and washed twice with ice-cold PBS (pH 7.4). Then, cells are incubated in dark with 0.5 ml of Annexin V-FITC/PI solution for 30 min in dark at room temperature according to manufacturer protocol. After staining, cells are injected via ACEA

MCF-7 cells [2] = assay: Cell cycle analysis by PI flow cytometry; format: cell-based; conditions: MCF-7, at GI50 concentration
Experimental: After the cells were handled as previously described, the distribution of the cells at each stage of the cell cycle was analysed. (For further details see Additional file 1: section II: practical results).
6. Analysis of Cell Cycle Distribution
as §6
cells) are collected by trypsinization and washed twice with ice-cold PBS (pH 7.4). Cells are re-suspended in two milliliters of 60% ice-cold ethanol and incubated at 4 °C for 1 h for fixation. Fixed cells are washed twice again with PBS (pH 7.4) and re-suspended in 1 mL of PBS containing 50 µg/mL RNAase A and 10 µg/mL propidium iodide (PI). After 20 min of incubation in dark at 37 C, cells are analyzed for DNA contents using flow cytometry analysis using FL2 (λex/em 535/617 nm) signal detector (ACEA Novocyte™ flowcytometer, ACEA Biosciences Inc., San Diego, CA, USA). For each sample, 12,000 events are acquired.
Cell cycle distribution is calculated using ACEA NovoExpress™ software (ACEA Biosciences Inc., San Diego, CA, USA).
*G0/G1-phase: This phase denotes the non-proliferating cells. Compounds with antiproliferative effect (regardless of their cytotoxicity) are expected to increase this cell […]
*S-phase: This phase denotes proliferating cells and particularly the cells who are undergoing DNA synthesis step of replication. Some compounds might induce S-phase […]
*G2/M-phase: This phase indicates the final phase of cell replication (mitosis). […]

T2 sequence (P15056 whole entry): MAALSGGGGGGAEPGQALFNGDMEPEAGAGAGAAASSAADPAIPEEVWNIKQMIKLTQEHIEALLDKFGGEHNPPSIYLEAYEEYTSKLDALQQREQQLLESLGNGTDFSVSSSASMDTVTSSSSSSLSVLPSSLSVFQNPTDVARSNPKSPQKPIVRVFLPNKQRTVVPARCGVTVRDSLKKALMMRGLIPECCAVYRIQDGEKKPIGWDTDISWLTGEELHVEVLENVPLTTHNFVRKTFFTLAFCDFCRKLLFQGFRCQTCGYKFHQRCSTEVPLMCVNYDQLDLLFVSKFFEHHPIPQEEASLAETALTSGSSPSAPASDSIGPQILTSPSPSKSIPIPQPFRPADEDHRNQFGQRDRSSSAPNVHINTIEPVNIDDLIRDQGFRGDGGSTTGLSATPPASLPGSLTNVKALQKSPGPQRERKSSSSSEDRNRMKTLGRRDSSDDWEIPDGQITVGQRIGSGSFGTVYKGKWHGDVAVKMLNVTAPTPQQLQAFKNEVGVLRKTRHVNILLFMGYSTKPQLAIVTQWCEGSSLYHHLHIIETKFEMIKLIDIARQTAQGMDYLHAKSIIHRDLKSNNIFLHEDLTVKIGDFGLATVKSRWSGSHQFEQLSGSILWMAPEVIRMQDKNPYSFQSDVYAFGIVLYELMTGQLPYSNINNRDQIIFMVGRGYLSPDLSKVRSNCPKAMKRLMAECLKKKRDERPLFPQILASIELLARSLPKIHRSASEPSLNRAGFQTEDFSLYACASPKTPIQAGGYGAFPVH
T1 sequence (P11362 22-822): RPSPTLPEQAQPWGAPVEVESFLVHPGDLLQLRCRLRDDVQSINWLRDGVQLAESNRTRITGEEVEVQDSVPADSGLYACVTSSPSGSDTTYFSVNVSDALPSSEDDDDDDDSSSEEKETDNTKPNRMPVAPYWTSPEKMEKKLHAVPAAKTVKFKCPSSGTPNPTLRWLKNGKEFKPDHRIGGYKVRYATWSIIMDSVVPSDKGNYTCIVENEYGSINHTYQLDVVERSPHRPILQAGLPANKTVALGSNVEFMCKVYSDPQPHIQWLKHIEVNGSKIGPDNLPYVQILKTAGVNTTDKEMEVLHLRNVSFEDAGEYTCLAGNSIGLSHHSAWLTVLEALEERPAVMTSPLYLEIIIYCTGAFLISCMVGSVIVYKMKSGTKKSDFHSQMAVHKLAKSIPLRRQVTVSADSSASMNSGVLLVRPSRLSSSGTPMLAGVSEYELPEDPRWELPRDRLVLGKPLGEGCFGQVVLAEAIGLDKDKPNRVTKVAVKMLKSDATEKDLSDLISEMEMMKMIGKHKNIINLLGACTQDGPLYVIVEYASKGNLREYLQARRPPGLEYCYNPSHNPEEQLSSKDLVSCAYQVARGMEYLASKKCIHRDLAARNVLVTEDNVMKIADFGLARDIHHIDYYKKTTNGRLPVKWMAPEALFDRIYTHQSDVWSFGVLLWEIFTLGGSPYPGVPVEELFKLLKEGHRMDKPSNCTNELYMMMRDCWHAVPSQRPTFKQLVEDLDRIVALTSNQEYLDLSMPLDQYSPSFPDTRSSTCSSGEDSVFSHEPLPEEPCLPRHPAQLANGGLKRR

## COc1cc(C=NNC(=O)c2ccc3[nH]c(-c4ccc(Cl)cc4)nc3c2)cc(OC)c1OC [8u, 2-(4-Chlorophenyl)-N'-(3,4,5-trimethoxybenzylidene)-1H-benzo[d]imidazole-5-carbohydrazide]
FGFR-1
  IC50: 3.74 ± 0.34 µM
BRAF (WT)
  IC50: 0.25 ± 0.03 µM
MCF-7 cells [1]
  apoptosis induction: induces cell apoptosis in MCF-7 cell line
MCF-7 cells [1]; 48h
  % necrotic cells (Q2-1): 1.09%
  % viable cells (Q2-3): 92.92%
MCF-7 cells [1]; 48h, control 0.25%
  % of cells in early apoptosis (Q2-4): 1.46%
MCF-7 cells [1]; 48h, control 2.36%
  % of cells in late apoptosis (Q2-2): 4.54%
MCF-7 cells [2]
  cell cycle arrest: arrests the MCF-7 cell line at the G2/M phase
MCF-7 cells [2]; 48h, control 2.64
  %Sub-G1: 4.40%
MCF-7 cells [2]; 48h, control 20.60
  %G2/M: 25.57%
MCF-7 cells [2]; 48h, control 23.10
  %S: 29.11%
MCF-7 cells [2]; 48h, control 56.30
  %G0/G1: 45.32%
